The text below walks through data of EPA's ToxRefDB 2.

Series [1] has as its system rat. The following applies: Prenatal developmental toxicity study, sprague dawley, Oral, Gavage/Intubation, dose end: 19 GD.
Series [2] has as its system rat. Particulars: Prenatal developmental toxicity study, sprague dawley, Oral, Gavage/Intubation, dose end: 19 GD. This is another data set of the same source.
The test system of series [3] is rat. The following applies: Subchronic oral toxicity in rodents, sprague dawley, Gavage/Intubation, dose end: 13 week, group: systemic.
The subject of another series is rabbit. The following applies: Prenatal developmental toxicity study, dutch, Oral, Gavage/Intubation, dose end: 18 GD.
The test system of series [4] is mouse. Particulars: Subchronic oral toxicity in rodents, cd1, Feed, dose end: 6 week, group: systemic.
In series [5] the test system is rat. Particulars: Subchronic oral toxicity in rodents, sprague dawley, Feed, dose end: 13 week, group: systemic.
The subject of series [6] is mouse. The following applies: Prenatal developmental toxicity study, cd1, Oral, Gavage/Intubation, dose end: 17 GD.
The subject of another series is hamster. The following applies: Developmental neurotoxicity study; golden syrian; Oral; Gavage/Intubation; dose end: 125 PND; group: cannot be grouped; systemic / in life observation / mortality / mortality.
Series [7] deals with mouse. The following applies: Carcinogenicity; b6c3f1; Oral; Feed; dose end: 80 week; group: systemic; systemic / in life observation / clinical signs / aggressive behavior + systemic / in life observation / clinical signs / alopecia + ….
Series [8] relates to mouse. The following applies: Multigenerational reproductive toxicity study, other, Oral, Feed, dose end: 1 generation.
Series [9] relates to rat. Particulars: Prenatal developmental toxicity study; sprague dawley; Oral; Gavage/Intubation; dose end: 20 GD; group: maternal; systemic / in life observation / body weight / body weight gain.
In series [10] the test system is rat. Particulars: Carcinogenicity; Osborne-Mendel; Oral; Feed; dose end: 80 week; group: systemic; systemic / in life observation / clinical signs / [other] + systemic / in life observation / clinical signs / alopecia + systemic / in life ….
Where [11] appears, read: group: developmental, systemic / in life observation / body weight / fetal weight.
[12] abbreviates: group: maternal, systemic / in life observation / clinical signs / salivation + systemic / in life observation / body weight / body weight + systemic / in ….
Setting [13] is: group: maternal, reproductive / reproductive performance / estrous cycle / corpora lutea.
[14] abbreviates: group: maternal, systemic / in life observation / body weight / body weight + systemic / in life observation / body weight / body weight gain + systemic / in….
Setting [15] is: systemic / pathology microscopic / stomach / edema + systemic / pathology microscopic / stomach / hyperkeratosis + systemic / pathology ….
The mark [16] stands for this setting: group: developmental, developmental / developmental malformation / bone / unossified + systemic / in life observation / body weight / fetal weight.
Setting [17] is: group: maternal, systemic / in life observation / body weight / body weight gain + systemic / in life observation / mortality / mortality.
[18] abbreviates: group: maternal, systemic / in life observation / body weight / body weight gain + systemic / in life observation / mortality / mortality + reproductive / ….
[19] abbreviates: systemic / in life observation / body weight / body weight gain + systemic / pathology microscopic / stomach / [other] + systemic / ….
Setting [20] is: systemic / in life observation / clinical signs / piloerection + systemic / organ weight / heart / absolute + systemic / pathology gross / ….
Setting [21] is: systemic / hematology / leukocyte (wbc) count differential / leukocyte (wbc).
Setting [22] is: group: developmental, developmental / developmental malformation / bone / absent + developmental / developmental malformation / bone / ossification sites + ….
[23] abbreviates: group: maternal, systemic / in life observation / body weight / body weight gain + systemic / in life observation / mortality / mortality + systemic / organ ….
The mark [24] stands for this setting: group: maternal, systemic / organ weight / liver / relative to body weight.
[25] abbreviates: group: parental, systemic / in life observation / mortality / mortality.
The mark [26] stands for this setting: group: reproductive, reproductive / reproductive performance / mating / mating + reproductive / offspring survival early / litter size / litter size.

As a reminder, the LOAEL is the lowest dose or exposure tested at which an adverse effect was seen. In general, NOAEL refers to the highest tested level that showed no adverse finding. Take `O=C(CBr)OCC=CCOC(=O)CBr` [1,4-Bis(bromoacetoxy)-2-butene]: the LEL in the series on rat [1] (setting [11]) turned out to be 35 mg/kg/day; in the series with rat [1] (group: maternal, systemic / in life observation / clinical signs / salivation + systemic / in life observation / clinical signs / fur (altered appearance) + …), 20 mg/kg/day; in the series with rat [2] (setting [11]), 50 mg/kg/day; with rat [2] (setting [13]) it was 25 mg/kg/day. For the same compound, the LOAEL with rat [1] (setting [11]) worked out at 35 mg/kg/day; with rat [1] (group: maternal, systemic / in life observation / clinical signs / salivation), 20 mg/kg/day; in the series with rat [2] (setting [11]), 50 mg/kg/day; in the series with rat [2] (setting [14]), 50 mg/kg/day; with rat [3] (setting [15]), 4.5 mg/kg/day. Besides, the NEL in the series on rat [1] (setting [11]) was 20 mg/kg/day; in the series on rat [1] (setting [12]), 5 mg/kg/day; with rat [2] (setting [11]), 25 mg/kg/day; in the series with rat [2] (setting [13]), < 25 mg/kg/day; in the series on rat [3] (systemic / clinical chemistry / calcium / calcium + systemic / clinical chemistry / glucose / glucose + systemic / clinical chemistry / urea…), 39.1 mg/kg/day. Further, the no observed adverse effect level (NOAEL) in the series on rat [1] (setting [11]) is 20 mg/kg/day; in the series with rat [1] (setting [12]) it was 5 mg/kg/day; in the series on rat [2] (setting [11]), 25 mg/kg/day; with rat [2] (setting [14]), 25 mg/kg/day; with rat [3] (setting [15]), < 4.5 mg/kg/day.
For the compound `Clc1nc(Cl)nc(Nc2ccccc2Cl)n1` [Anilazine], the LEL with rabbit (setting [16]) was found to be 75 mg/kg/day; in the series with rabbit (setting [17]) it was 40 mg/kg/day; with mouse [4] (setting [20]) it was 334 mg/kg/day. Also, the lowest-observed-adverse-effect level (LOAEL) with rabbit (setting [16]) stood at 75 mg/kg/day; in the series on rabbit (setting [17]) it was 40 mg/kg/day; with mouse [4] (setting [19]), 1380 mg/kg/day; in the series on rat [5] (setting [21]), 45.9 mg/kg/day. For the same compound, the NEL was 40 mg/kg/day with rabbit (setting [16]), 15 mg/kg/day with rabbit (setting [18]), < 334 mg/kg/day in the series with mouse [4] (setting [20]) and 600 mg/kg/day in the series on rat [5] (systemic / organ weight / liver / relative to body weight + systemic / organ weight / lung / relative to body weight + systemic / organ …). Further, the NOAEL in the series with rabbit (setting [16]) was 40 mg/kg/day; in the series on rabbit (setting [18]), 15 mg/kg/day; in the series on mouse [4] (setting [19]), 339 mg/kg/day; in the series on rat [5] (setting [21]), < 45.9 mg/kg/day.
With `ClC1=C(Cl)[C@]2(Cl)[C@@H]3[C@H]4C[C@H]([C@@H]5O[C@H]45)[C@@H]3[C@@]1(Cl)C2(Cl)Cl` [Endrin], the LEL with mouse [6] (setting [22]) came out at 1 mg/kg/day; in the series with mouse [6] (setting [24]), 0.5 mg/kg/day; in the series on hamster it was 1.5 mg/kg/day; in the series on mouse [7], 0.24 mg/kg/day; in the series with mouse [8] (setting [25]) it was 0.75 mg/kg/day; in the series with mouse [8] (setting [26]) it was 0.75 mg/kg/day. Further, the figures for the LEL with rat [9] and with rat [10] were 0.3 mg/kg/day and 0.125 mg/kg/day, respectively. Besides, the LOAEL is > 2 mg/kg/day with mouse [6] (setting [22]); > 2 mg/kg/day in the series with mouse [6] (setting [23]); > 1.5 mg/kg/day in the series on hamster; > 0.48 mg/kg/day in the series on mouse [7]; > 0.75 mg/kg/day in the series on mouse [8] (setting [25]); > 0.75 mg/kg/day in the series with mouse [8] (setting [26]). The values for the LOAEL in the series with rat [9] and in the series on rat [10] were > 0.45 mg/kg/day and > 0.25 mg/kg/day, respectively. Further, the NEL in the series on mouse [6] (setting [22]) was 0.5 mg/kg/day; in the series with mouse [6] (setting [24]), < 0.5 mg/kg/day; in the series on mouse [7] it was < 0.24 mg/kg/day; with mouse [8] (setting [25]), < 0.75 mg/kg/day; with mouse [8] (setting [26]), < 0.75 mg/kg/day; in the series on rat [9], 0.15 mg/kg/day. In addition, the NEL with rat [10] is < 0.125 mg/kg/day. Moreover, the NOAEL is ≥ 2 mg/kg/day with mouse [6] (setting [22]); ≥ 2 mg/kg/day with mouse [6] (setting [23]); ≥ 1.5 mg/kg/day in the series with hamster; ≥ 0.48 mg/kg/day with mouse [7]; ≥ 0.75 mg/kg/day in the series with mouse [8] (setting [25]); ≥ 0.75 mg/kg/day in the series with mouse [8] (setting [26]). Further, the NOAEL in the series on rat [9] is ≥ 0.45 mg/kg/day; in the series on rat [10] it was ≥ 0.25 mg/kg/day.
